Earlier results, collected in patent US8877808B2, “Protection against skin diseases by aurin tricarboxylic acid and its derivatives” (Aurin Biotech Inc., priority 2012, dated 2014).

Target: C9 binding to C5b678 (Homo sapiens, UniProt P02748)
Conditions: Lee et al. 2012a

C9 binding to C5b678, sequence (P02748 22-559): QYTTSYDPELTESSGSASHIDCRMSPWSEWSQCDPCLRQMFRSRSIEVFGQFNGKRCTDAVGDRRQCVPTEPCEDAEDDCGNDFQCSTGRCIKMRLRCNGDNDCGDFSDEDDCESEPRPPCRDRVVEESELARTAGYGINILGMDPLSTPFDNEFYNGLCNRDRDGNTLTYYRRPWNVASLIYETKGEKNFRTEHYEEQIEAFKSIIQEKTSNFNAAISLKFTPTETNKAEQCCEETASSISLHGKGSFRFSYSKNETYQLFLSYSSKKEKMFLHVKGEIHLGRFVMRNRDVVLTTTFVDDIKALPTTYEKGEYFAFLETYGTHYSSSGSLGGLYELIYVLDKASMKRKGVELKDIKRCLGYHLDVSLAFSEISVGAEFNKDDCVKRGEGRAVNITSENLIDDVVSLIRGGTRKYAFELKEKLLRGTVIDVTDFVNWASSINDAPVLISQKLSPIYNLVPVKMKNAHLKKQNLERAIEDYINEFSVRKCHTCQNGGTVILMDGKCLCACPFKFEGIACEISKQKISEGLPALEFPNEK

| Substance | block of classical pathway at C9 binding to C5b678, formation of the MAC (C5b-9) |
| --- | --- |
| aurin hexacarboxylic acid [AHA] | block classical pathway formation at the stage of C9 binding to C5b678 |
| aurin quadracarboxylic acid [AQA] | block classical pathway formation at the stage of C9 binding to C5b678 |
